Test results published in patent US20250255891A1, “PHARMACEUTICAL COMPOSITION INJECTABLE INTO URINARY TRACT ORGAN CAVITY FOR PREVENTION OR TREATMENT OF UROTHELIAL CANCER” (NATIONAL UNIVERSITY CORPORATION KAGAWA UNIVERSITY, priority 2019, published 2025).

Experiments:
RT112 = assay: Cell survival assay (MTT assay), urothelial cancer cell line RT112; format: cell-based, human
Protocol: (§1) Three human urothelial cancer cell lines (RT112, 253J, and J82) were used to analyze the antitumor effect of rare sugars. Ten rare sugars of L-allulose, D-allulose, D-allose, L-fructose, D-mannose, L-sorbose, D-tagatose, D-galactose, D-sorbose, and L-tagatose were used, and D-glucose and D-fructose were used as monosaccharides other than the rare sugars. A minimum essential medium (MEM) containing D-glucose at 1,000 mg/l was used as the culture medium, and the antitumor effect of a rare sugar was evaluated in a prepared MEM containing a monosaccharide or a rare sugar at 10 mM, 25 mM, or 50 mM [in the drawings, indicated by (10), (25), or (50)]. An MEM containing no sugar was used for control. With the MEM, cell suspensions each at 5.0×10^4 cells/ml were prepared. Each suspension was distributed in a 96-well plate at 0.1 ml/well and then was incubated for 24 hours. The culture solution was then removed, next a culture solution containing a monosaccharide or a rare sugar at 10 mM, 25 mM, or 50 mM in the MEM was added at 0.1 ml/well, and the whole was incubated for 24 hours (#1 to #13). An MTT assay is a test method for determining survival and uses a color reaction of an insoluble formazan pigment (blue) formed by reduction of MTT as a tetrazolium salt. […] The coloration is measured with a microplate reader to determine the cell survival rate.

253J = assay: Cell survival assay (MTT assay), urothelial cancer cell line 253J; format: cell-based, human
Protocol: as §1

J82 = assay: Cell survival assay (MTT assay), urothelial cancer cell line J82; format: cell-based, human
Protocol: as §1

[1] = Basic safety tests (mutagenicity, biodegradability, acute oral toxicity, primary skin irritation, primary eye irritation); details: tests ordered to a designated laboratory
Excerpt: The safety of D-allose required for use as a pharmaceutical component is probably sufficient because the rare sugar is a monosaccharide present even in a trace amount in nature. Mutagenicity test, biodegradability test, and three acute toxicity tests (acute oral toxicity test, primary skin irritation test, and primary eye irritation test) are established as the most basic safety tests.

[2] = compared with 11 other monosaccharides/rare sugars at 10-50 mM

## O=C[C@H](O)[C@H](O)[C@H](O)[C@H](O)CO [D-allose]
RT112; 10 mM, 25 mM and 50 mM in MEM, 24 hours, p<0.05, FIG. 1
  survival rate as compared with the control: significantly reduced the survival rate
RT112; [2]
  antitumor effect relative to the other analyzed sugars: strongest antitumor effect among the analyzed sugars
253J; 10 mM, 25 mM and 50 mM in MEM, 24 hours, p<0.05, FIG. 2
  survival rate as compared with the control: significantly reduced the survival rate
253J; [2]
  antitumor effect relative to the other analyzed sugars: strongest antitumor effect among the analyzed sugars
J82; 10 mM, 25 mM and 50 mM in MEM, 24 hours, p<0.05, FIG. 3
  survival rate as compared with the control: significantly reduced the survival rate
J82; [2]
  antitumor effect relative to the other analyzed sugars: strongest antitumor effect among the analyzed sugars
[1]
  result of basic safety tests: sufficient safety
